# Test results as given in publication PMC2790855, “BU-32: a novel proteasome inhibitor for breast cancer” (2009).
# Molecular target: T1, 20S proteasome caspase-like activity (β1-subunit) (Homo sapiens, UniProt P28072)
# T1 construct: gene PSMB6; with 20S proteasome
# T1 sequence (P28072 35-239): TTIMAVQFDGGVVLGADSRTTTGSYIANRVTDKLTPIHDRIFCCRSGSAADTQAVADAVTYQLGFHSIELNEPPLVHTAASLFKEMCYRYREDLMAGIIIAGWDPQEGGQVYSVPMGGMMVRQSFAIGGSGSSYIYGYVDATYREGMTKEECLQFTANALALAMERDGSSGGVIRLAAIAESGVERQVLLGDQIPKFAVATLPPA
# Assay: Proteasome-Glo caspase-like assay in MDA-MB-231, MCF7 and SKBR3 cells treated […] h with […]; reference inhibitor
# Format: cell-based
smiles,measurement,value
CC(C)C[C@H](NC(=O)[C@H](Cc1ccccc1)NC(=O)c1cnccn1)B(O)O [Bortezomib],"Proteasome-Glo caspase-like assay in MDA-MB-231, MCF7 and SKBR3 cells treated 24","analyzed for the inhibition of chymotryptic-like, caspase-like, and tryptic-like intracellular proteasome activities"
